Experiments:
GST-Bcl-2 = GST-Bcl-2 (Homo sapiens, UniProt P10415); assay: TR-FRET binding assay, GST-Bcl-2 with F-Bak peptide probe; conditions: TR-FRET Binding Affinity, GST-Bcl-2, F-Bak peptide probe
Outline: (§1)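 Competitive TR-FRET: GST-fusion protein, fluorescent Bak peptide probe and Tb-labelled anti-GST antibody incubated with compound dilution series (starting 50 μM as 2× stock, 10% DMSO) for 3 h at RT. Excitation 340/35 nm; Ki derived via Wang's exact competitive-binding equation.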

GST-Bcl-XL = GST-Bcl-XL (Homo sapiens, UniProt Q07817); assay: TR-FRET binding assay, GST-Bcl-XL with F-Bak peptide probe; conditions: TR-FRET Binding Affinity, GST-Bcl-XL, F-Bak peptide probe
Outline: as §1

Canine platelets = assay: Platelet cell viability assay (platelet-rich plasma, Cell Titer Glo); format: cell-based; conditions: Canis lupus familiaris, 5 h, isolated canine platelets ex vivo, five hours at 37° C.
Outline: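 Isolated canine platelets were incubated ex vivo with a range of compound concentrations. After 20 min equilibration at room temperature, viability was measured by Cell Titer Glo luminescence.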

FL5.12/Bcl-2 cells = assay: FL5.12/Bcl-2 cell viability assay under IL-3 withdrawal (CellTitre Glo); format: cell-based, murine; conditions: Mus musculus, IL-3 withdrawn 48 hrs, then 24 hrs with compound
Outline: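 Viability measured with CellTiter-Glo after 24 h compound treatment at various concentrations, following 48 h IL-3 withdrawal (no WEHI-3B medium). Cells: prolymphocytic mouse FL5.12 line stably transfected to overexpress Bcl-2, cultured at 37 °C, 5% CO2.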

Sequence of GST-Bcl-2 (P10415 whole entry, the tested form may be a part): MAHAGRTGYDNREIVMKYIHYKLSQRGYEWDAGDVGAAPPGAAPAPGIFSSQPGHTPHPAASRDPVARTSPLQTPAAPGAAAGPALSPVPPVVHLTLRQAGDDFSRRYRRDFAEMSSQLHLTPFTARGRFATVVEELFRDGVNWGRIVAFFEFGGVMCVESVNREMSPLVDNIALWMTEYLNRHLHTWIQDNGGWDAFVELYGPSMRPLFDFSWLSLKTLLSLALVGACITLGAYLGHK
Sequence of GST-Bcl-XL (Q07817 whole entry): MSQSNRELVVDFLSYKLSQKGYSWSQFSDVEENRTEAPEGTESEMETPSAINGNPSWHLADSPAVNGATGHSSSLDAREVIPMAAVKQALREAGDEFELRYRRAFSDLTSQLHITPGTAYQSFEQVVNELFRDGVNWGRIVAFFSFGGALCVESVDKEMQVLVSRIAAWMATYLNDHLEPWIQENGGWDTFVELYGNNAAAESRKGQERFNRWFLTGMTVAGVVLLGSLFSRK

SMILES	Ki (GST-Bcl-2)	Ki (GST-Bcl-XL)	EC50 (Canine platelets)	EC50 (FL5.12/Bcl-2 cells)
O=C(NS(=O)(=O)c1ccc(NCC2CCOCC2)c([N+](=O)[O-])c1)c1ccc(N2CCN(Cc3cc(OCCN4CCOCC4)ccc3-c3ccc(Cl)cc3)CC2)cc1Oc1cccc2[nH]ccc12 [Example 130, 4-(4-{[4′-chloro-4-(2-morpholin-4-ylethoxy)-1,1′-biphenyl-2-yl]methyl}piperazin-1-yl)-2-(1H-indol-4-yloxy)-N-({3-nitro-4-[(tetrahydro-2H-pyran-4-ylmethyl)amino]phenyl}sulfonyl)benzamide]	0.14 nM	> 660 nM	> 50000 nM	197 nM
O=C(NS(=O)(=O)c1ccc(NCC2CCOCC2)c([N+](=O)[O-])c1)c1ccc(N2CCN(Cc3c(OCCN4CCOCC4)cccc3-c3ccc(Cl)cc3)CC2)cc1Oc1cccc2[nH]ccc12 [Example 131, 4-(4-{[4′-chloro-3-(2-morpholin-4-ylethoxy)-1,1′-biphenyl-2-yl]methyl}piperazin-1-yl)-2-(1H-indol-4-yloxy)-N-({3-nitro-4-[(tetrahydro-2H-pyran-4-ylmethyl)amino]phenyl}sulfonyl)benzamide]	0.106 nM	243 nM	> 50000 nM	31 nM
O=C(NS(=O)(=O)c1ccc(NCC2CCOCC2)c([N+](=O)[O-])c1)c1ccc(N2CCN(Cc3c(OCCN4CCOCC4)cccc3-c3ccc(Cl)cc3)CC2)cc1Oc1ccc2[nH]ccc2c1 [Example 132, 4-(4-{[4′-chloro-3-(2-morpholin-4-ylethoxy)-1,1′-biphenyl-2-yl]methyl}piperazin-1-yl)-2-(1H-indol-5-yloxy)-N-({3-nitro-4-[(tetrahydro-2H-pyran-4-ylmethyl)amino]phenyl}sulfonyl)benzamide]	0.553 nM	315 nM	> 50000 nM	42 nM
CN(C)CCOc1ccc(-c2ccc(Cl)cc2)c(CN2CCN(c3ccc(C(=O)NS(=O)(=O)c4ccc(NC5CCN(C)CC5)c([N+](=O)[O-])c4)c(Oc4ccccc4)c3)CC2)c1 [Example 133, 4-[4-({4′-chloro-4-[2-(dimethylamino)ethoxy]-1,1′-biphenyl-2-yl}methyl)piperazin-1-yl]-N-({4-[(1-methylpiperidin-4-yl)amino]-3-nitrophenyl}sulfonyl)-2-phenoxybenzamide]	0.009 nM	0.281 nM	95 nM	20 nM
CN(C)CCOc1cccc(-c2ccc(Cl)cc2)c1CN1CCN(c2ccc(C(=O)NS(=O)(=O)c3ccc(NCCCN4CCCC4)c([N+](=O)[O-])c3)c(Oc3ccc4[nH]ccc4c3)c2)CC1 [Example 134, 4-[4-({4′-chloro-3-[2-(dimethylamino)ethoxy]-1,1′-biphenyl-2-yl}methyl)piperazin-1-yl]-2-(1H-indol-5-yloxy)-N-({3-nitro-4-[(3-pyrrolidin-1-ylpropyl)amino]phenyl}sulfonyl)benzamide]	0.052 nM	18 nM	4720 nM	48 nM
CN(C)CCOc1ccc(-c2ccc(Cl)cc2)c(CN2CCN(c3ccc(C(=O)NS(=O)(=O)c4ccc(NCCCN5CCCC5)c([N+](=O)[O-])c4)c(Oc4ccc5[nH]ccc5c4)c3)CC2)c1 [Example 135, 4-[4-({4′-chloro-4-[2-(dimethylamino)ethoxy]-1,1′-biphenyl-2-yl}methyl)piperazin-1-yl]-2-(1H-indol-5-yloxy)-N-({3-nitro-4-[(3-pyrrolidin-1-ylpropyl)amino]phenyl}sulfonyl)benzamide]	0.008 nM	6.24 nM	4550 nM	42 nM
O=C(NS(=O)(=O)c1ccc(NCCCN2CCCC2)c([N+](=O)[O-])c1)c1ccc(N2CCN(Cc3cc(OCCN4CCOCC4)ccc3-c3ccc(Cl)cc3)CC2)cc1Oc1ccc2[nH]ccc2c1 [Example 136, 4-(4-{[4′-chloro-4-(2-morpholin-4-ylethoxy)-1,1′-biphenyl-2-yl]methyl}piperazin-1-yl)-2-(1H-indol-5-yloxy)-N-({3-nitro-4-[(3-pyrrolidin-1-ylpropyl)amino]phenyl}sulfonyl)benzamide]	0.259 nM	61.9 nM	> 50000 nM	190 nM
CN(C)CCOc1ccc(-c2ccc(Cl)cc2)c(CN2CCN(c3ccc(C(=O)NS(=O)(=O)c4ccc(NC5CCN(CC(F)(F)F)CC5)c([N+](=O)[O-])c4)c(Oc4ccccc4)c3)CC2)c1 [Example 137, 4-[4-({4′-chloro-4-[2-(dimethylamino)ethoxy]-1,1′-biphenyl-2-yl}methyl)piperazin-1-yl]-N-[(3-nitro-4-{[1-(2,2,2-trifluoroethyl)piperidin-4-yl]amino}phenyl)sulfonyl]-2-phenoxybenzamide]	0.305 nM	16 nM	> 50000 nM	281 nM
O=C(NS(=O)(=O)c1ccc(NCC2CCOCC2)c([N+](=O)[O-])c1)c1ccc(N2CCN(Cc3cc(OCCN4CCCC4)ccc3-c3ccc(Cl)cc3)CC2)cc1Oc1ccccc1 [Example 138, 4-(4-{[4′-chloro-4-(2-pyrrolidin-1-ylethoxy)-1,1′-biphenyl-2-yl]methyl}piperazin-1-yl)-N-({3-nitro-4-[(tetrahydro-2H-pyran-4-ylmethyl)amino]phenyl}sulfonyl)-2-phenoxybenzamide]	0.009 nM	5.17 nM	17800 nM	29 nM
CC(C)N(CCOc1ccc(-c2ccc(Cl)cc2)c(CN2CCN(c3ccc(C(=O)NS(=O)(=O)c4ccc(NCC5CCOCC5)c([N+](=O)[O-])c4)c(Oc4ccccc4)c3)CC2)c1)C(C)C [Example 139, 4-[4-({4′-chloro-4-[2-(diisopropylamino)ethoxy]-1,1′-biphenyl-2-yl}methyl)piperazin-1-yl]-N-({3-nitro-4-[(tetrahydro-2H-pyran-4-ylmethyl)amino]phenyl}sulfonyl)-2-phenoxybenzamide]	0.101 nM	10.4 nM	38500 nM	46 nM
O=C(NS(=O)(=O)c1ccc(NCC2CCOCC2)c([N+](=O)[O-])c1)c1ccc(N2CCN(Cc3ccccc3-c3ccc(Cl)cc3)CC2)cc1Oc1ccc2c(c1)CCN2 [Example 140, 4-{4-[(4′-chloro-1,1′-biphenyl-2-yl)methyl]piperazin-1-yl}-2-(2,3-dihydro-1H-indol-5-yloxy)-N-({3-nitro-4-[(tetrahydro-2H-pyran-4-ylmethyl)amino]phenyl}sulfonyl)benzamide]	4.73 nM	> 660 nM	> 50000 nM	2130 nM
O=C(NS(=O)(=O)c1ccc(NCCCN2CCCC2)c([N+](=O)[O-])c1)c1ccc(N2CCN(CC3=C(c4ccc(Cl)cc4)CCCCC3)CC2)cc1Oc1cccc2[nH]ccc12 [Example 141, 4-(4-{[2-(4-chlorophenyl)cyclohept-1-en-1-yl]methyl}piperazin-1-yl)-2-(1H-indol-4-yloxy)-N-({3-nitro-4-[(3-pyrrolidin-1-ylpropyl)amino]phenyl}sulfonyl)benzamide]	0.673 nM	28.6 nM	> 50000 nM	76 nM
O=C(NS(=O)(=O)c1ccc(NCCCN2CCCC2)c([N+](=O)[O-])c1)c1ccc(N2CCN(CC3=C(c4ccc(Cl)cc4)CCCCCC3)CC2)cc1Oc1cccc2[nH]ccc12 [Example 142, 4-(4-{[2-(4-chlorophenyl)cyclooct-1-en-1-yl]methyl}piperazin-1-yl)-2-(1H-indol-4-yloxy)-N-({3-nitro-4-[(3-pyrrolidin-1-ylpropyl)amino]phenyl}sulfonyl)benzamide]	3.66 nM	102 nM	> 50000 nM	270 nM
O=C(NS(=O)(=O)c1ccc(NCCCN2CCCC2)c([N+](=O)[O-])c1)c1ccc(N2CCN(CC3=C(c4ccc(Cl)cc4)CCC3)CC2)cc1Oc1cccc2[nH]ccc12 [Example 143, 4-(4-{[2-(4-chlorophenyl)cyclopent-1-en-1-yl]methyl}piperazin-1-yl)-2-(1H-indol-4-yloxy)-N-({3-nitro-4-[(3-pyrrolidin-1-ylpropyl)amino]phenyl}sulfonyl)benzamide]	2.23 nM	75.4 nM	> 50000 nM	199 nM
CN1CCC(Nc2ccc(S(=O)(=O)NC(=O)c3ccc(N4CCN(CC5=C(c6ccc(Cl)cc6)CC(C)(C)C5)CC4)cc3Oc3cccc4[nH]ccc34)cc2[N+](=O)[O-])CC1 [Example 144, 4-(4-{[2-(4-chlorophenyl)-4,4-dimethylcyclopent-1-en-1-yl]methyl}piperazin-1-yl)-2-(1H-indol-4-yloxy)-N-({4-[(1-methylpiperidin-4-yl)amino]-3-nitrophenyl}sulfonyl)benzamide]	53.9 nM	> 660 nM	40000 nM	46 nM
CN1CCC(Nc2ccc(S(=O)(=O)NC(=O)c3ccc(N4CCN(CC5=C(c6ccc(Cl)cc6)CC(C)(C)OC5)CC4)cc3Oc3cccc4[nH]ccc34)cc2[N+](=O)[O-])CC1 [Example 145, 4-(4-{[4-(4-chlorophenyl)-6,6-dimethyl-5,6-dihydro-2H-pyran-3-yl]methyl}piperazin-1-yl)-2-(1H-indol-4-yloxy)-N-({4-[(1-methylpiperidin-4-yl)amino]-3-nitrophenyl}sulfonyl)benzamide]	0.03 nM	12 nM	3210 nM	4 nM
